In brackets after ≈: the same amount, converted by molar mass.
Target: T1, Transient receptor potential cation channel subfamily M member 8 (Homo sapiens, UniProt Q7Z2W7)
Assay: Potency index, ratio of WS-3 EC50 to compound EC50 for human TRPM8 receptor
Conditions: not given; call rule not given here
Target sequence in this assay (Q7Z2W7 whole entry, looked up): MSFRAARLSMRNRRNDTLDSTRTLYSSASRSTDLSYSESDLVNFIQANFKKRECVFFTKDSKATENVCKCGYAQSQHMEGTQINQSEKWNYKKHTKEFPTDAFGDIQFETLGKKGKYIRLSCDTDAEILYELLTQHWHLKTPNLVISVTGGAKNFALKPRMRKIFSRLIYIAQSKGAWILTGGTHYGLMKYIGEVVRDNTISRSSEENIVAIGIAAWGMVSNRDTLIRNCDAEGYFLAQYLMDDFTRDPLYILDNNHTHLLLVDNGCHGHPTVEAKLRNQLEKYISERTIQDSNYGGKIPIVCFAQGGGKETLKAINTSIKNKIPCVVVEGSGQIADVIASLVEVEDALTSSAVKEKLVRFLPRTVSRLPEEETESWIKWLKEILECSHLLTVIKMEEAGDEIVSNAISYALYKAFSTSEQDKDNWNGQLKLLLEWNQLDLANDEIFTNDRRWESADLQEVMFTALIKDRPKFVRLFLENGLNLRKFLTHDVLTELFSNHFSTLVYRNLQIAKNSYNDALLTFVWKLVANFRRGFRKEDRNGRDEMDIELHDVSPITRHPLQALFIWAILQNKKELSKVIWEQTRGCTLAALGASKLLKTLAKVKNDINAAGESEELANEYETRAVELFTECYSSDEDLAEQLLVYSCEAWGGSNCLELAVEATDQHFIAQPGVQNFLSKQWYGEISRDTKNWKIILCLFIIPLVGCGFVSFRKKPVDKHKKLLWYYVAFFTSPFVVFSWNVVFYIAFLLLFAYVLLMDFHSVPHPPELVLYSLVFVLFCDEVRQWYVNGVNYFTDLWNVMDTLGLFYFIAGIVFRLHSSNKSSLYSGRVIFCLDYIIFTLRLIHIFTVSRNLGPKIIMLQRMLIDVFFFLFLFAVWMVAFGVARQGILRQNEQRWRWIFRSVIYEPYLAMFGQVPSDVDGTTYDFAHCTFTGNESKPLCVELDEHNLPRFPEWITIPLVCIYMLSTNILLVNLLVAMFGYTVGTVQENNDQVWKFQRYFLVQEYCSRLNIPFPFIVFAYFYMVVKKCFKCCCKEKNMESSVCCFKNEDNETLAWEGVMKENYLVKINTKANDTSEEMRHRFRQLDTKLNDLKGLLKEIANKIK

Row | Structure (SMILES) | Ratio EC50
1 | CCN(Cc1cccs1)C(=O)COc1cccc(C)c1 | 42
2 | CCc1ccc(OCC(=O)N(CC)Cc2cccs2)cc1 | 66
3 | O=C(COc1ccc2c(c1)CCC2)N(Cc1cccs1)c1ccn[nH]1 | > 1e+06
4 | CCN(Cc1cccs1)C(=O)COc1ccccc1 | 4
5 | O=C(/C=C/c1ccc2c(c1)OCO2)N(Cc1cccs1)c1ccn[nH]1 | > 1e+06
6 | CCN(Cc1cccs1)C(=O)COc1ccc(C(C)C)cc1 | 10
7 | CCN(Cc1cccs1)C(=O)c1cc2cc(OC)ccc2o1 | 164
8 | Cc1ccc(OCC(=O)N(Cc2cccs2)c2cccnc2)cc1 | 24
9 | CCN(Cc1cccs1)C(=O)CCc1ccc(C)cc1 | 40
10 | Cc1ccc(/C=C/C(=O)N(Cc2cccs2)c2ccn[nH]2)cc1 | > 1e+06
11 | CCN(Cc1cccs1)C(=O)C[C@H](O)c1ccccc1 | 0.1
12 | CCN(Cc1cccs1)C(=O)COc1ccc(Cl)cc1 | 93
13 | COCCN(Cc1cccs1)C(=O)COc1ccc(C)cc1 | 11
14 | Cc1ccc(OCC(=O)N(Cc2cccs2)c2ccncc2)cc1 | 77
15 | CCN(Cc1ccoc1)C(=O)COc1ccc(C)cc1 | 32
16 | CCN(Cc1nccs1)C(=O)COc1ccc(C)cc1 | 2

Next, values leading:

Row | Ratio EC50 | Structure (SMILES)
17 | 0.1 | CCN(Cc1c[nH]nn1)C(=O)COc1ccc(C)cc1
18 | 13 | Cc1ccc(OCC(=O)N(Cc2cccs2)c2ccn(C)n2)cc1
19 | 0.3 | CCN(Cc1cccn1C)C(=O)COc1ccc(C)cc1
20 | 18 | CCN(Cc1cccs1)C(=O)COc1ccccc1C
21 | 0.2 | CCN(Cc1cccnc1)C(=O)COc1ccc(C)cc1
22 | 3 | Cc1ccc(OCC(=O)N(Cc2cccs2)c2cnccn2)cc1
23 | 42 | CCN(Cc1cccs1)C(=O)c1cc2cc(C)ccc2o1
24 | 0.2 | CCN(Cc1cccs1)C(=O)COc1ccc(CO)cc1
25 | 577 | Cc1ccc(OCC(=O)N(Cc2cccs2)C2CC2)cc1
26 | 66 | Cc1ccc(OCC(=O)N(Cc2cccs2)C(C)C)cc1
27 | 1 | Cc1ccc(OCC(=O)N(CCCO)Cc2cccs2)cc1
28 | 30900 | COc1ccc2oc(C(=O)N(Cc3cccs3)c3ccn[nH]3)cc2c1
29 | 2 | Cc1ccc(OCC(=O)N(Cc2cccs2)c2nccs2)cc1
30 | 0.1 | Cc1ccc(OCC(=O)N(Cc2cccs2)C2CCCCC2)cc1
31 | 18 | CCN(Cc1cccs1)C(=O)COc1ccc(C(F)(F)F)cc1
32 | 2 | CCN(Cc1ccccc1)C(=O)COc1ccc(C)cc1
33 | 3 | Cc1ccc(OCC(=O)N(Cc2cccs2)c2nccn2C)cc1

Tested on: Homo sapiens
Assay: In vivo agonist activity at human TRPM8 in trained human subjects assessed as concentration required to deliver cooling sensation equivalent to 45 uM WS-3 by measuring cooling intensity
Assay type: functional
Conditions: not given

Row | Structure (SMILES) | Activity [µM]
34 | CCN(Cc1cccs1)C(=O)COc1cccc(C)c1 | 5
35 | CCc1ccc(OCC(=O)N(CC)Cc2cccs2)cc1 | 5
36 | O=C(COc1ccc2c(c1)CCC2)N(Cc1cccs1)c1ccn[nH]1 | 3
37 | CCN(Cc1cccs1)C(=O)c1cc2cc(C)ccc2o1 | 10
38 | CCN(Cc1cccs1)C(=O)c1cc2cc(OC)ccc2o1 | 5
39 | Cc1ccc(OCC(=O)N(Cc2cccs2)c2cccnc2)cc1 | 15
40 | CCN(Cc1cccs1)C(=O)CCc1ccc(C)cc1 | >5
41 | Cc1ccc(OCC(=O)N(Cc2cccs2)C2CC2)cc1 | 5
42 | Cc1ccc(/C=C/C(=O)N(Cc2cccs2)c2ccn[nH]2)cc1 | 3
43 | COc1ccc2oc(C(=O)N(Cc3cccs3)c3ccn[nH]3)cc2c1 | 5
44 | CCN(Cc1ccoc1)C(=O)COc1ccc(C)cc1 | 5

Tested on: not listed separately
Assay: Thermodynamic solubility of the compound in pH 7.1 phosphoric buffer
Assay type: physicochemical
Conditions: read-out: Therm_solubility

Row | solubility thermodynamic [µM] | Structure (SMILES)
45 | 26 (≈ 9.19 µg/mL) | O=C(COc1ccc2c(c1)CCC2)N(Cc1cccs1)c1ccn[nH]1
46 | 27 (≈ 8.08 µg/mL) | CCN(Cc1cccs1)C(=O)c1cc2cc(C)ccc2o1
47 | 49 (≈ 15.5 µg/mL) | CCN(Cc1cccs1)C(=O)c1cc2cc(OC)ccc2o1
48 | 3.7 (≈ 1.2 µg/mL) | Cc1ccc(/C=C/C(=O)N(Cc2cccs2)c2ccn[nH]2)cc1

Tested on: not listed separately
Assay: Permeability of the compound assessed as drug transport by PAMPA
Assay type: physicochemical
Conditions: not given

Row | Drug transport [%] | Structure (SMILES)
49 | 5 | O=C(COc1ccc2c(c1)CCC2)N(Cc1cccs1)c1ccn[nH]1
50 | 2 | CCN(Cc1cccs1)C(=O)c1cc2cc(C)ccc2o1
51 | 1 | CCN(Cc1cccs1)C(=O)c1cc2cc(OC)ccc2o1
52 | 5 | Cc1ccc(/C=C/C(=O)N(Cc2cccs2)c2ccn[nH]2)cc1

Target: T1, Transient receptor potential cation channel subfamily M member 8
Assay: Agonist activity at human TRPM8 expressed in HEK293 cells assessed as increase in intracellular calcium level after 15 mins by Fluo-3-AM dye-based fluorescence assay
Assay type: cell-based
Conditions: hek293
Target sequence in this assay (Q7Z2W7 whole entry): as the sequence (Q7Z2W7 whole entry, looked up) above

Row | Structure (SMILES) | EC50
53 | CCN(C(=O)COc1ccc(C)cc1)C(C)c1cccs1 (stereo not given) | Not Active
54 | CCN(Cc1cccs1)C(=O)COc1ccc(C(=O)O)cc1 | Not Active
55 | CCN1C(=O)C(Oc2ccc(C)cc2)C1c1cccs1 (stereo not given) | Active
56 | CCN(Cc1cc[nH]n1)C(=O)COc1ccc(C)cc1 | Not Active
57 | CCN(Cc1cccs1)C(=O)c1cc2cc(C)ccc2n1C | Not Active

Second part, the compound after the results:

Row | EC50 | Structure (SMILES)
58 | Active | CCN(Cc1cn[nH]c1)C(=O)COc1ccc(C)cc1
59 | Not Active | Cc1ccc(OC2CCN(Cc3cccs3)C2=O)cc1 (stereo not given)
60 | Not Active | CCN(Cc1cccs1)C(=O)C[C@@H](O)c1ccccc1
61 | Not Active | CCN(Cc1ccncc1)C(=O)COc1ccc(C)cc1

Same assay, conditions: read-out: EC50

Row | Structure (SMILES) | EC50 [nM]
62 | CCN(Cc1cccs1)C(=O)COc1cccc(C)c1 | 97
63 | CCc1ccc(OCC(=O)N(CC)Cc2cccs2)cc1 | 67
64 | O=C(COc1ccc2c(c1)CCC2)N(Cc1cccs1)c1ccn[nH]1 | 0.001
65 | CCN(Cc1cccs1)C(=O)COc1ccccc1 | 1400
66 | O=C(/C=C/c1ccc2c(c1)OCO2)N(Cc1cccs1)c1ccn[nH]1 | 0.002
67 | CCN(Cc1cccs1)C(=O)COc1ccc(C(C)C)cc1 | 397
68 | CCN(Cc1cccs1)C(=O)c1cc2cc(OC)ccc2o1 | 80
69 | Cc1ccc(OCC(=O)N(Cc2cccs2)c2cccnc2)cc1 | 198
70 | CCN(Cc1cccs1)C(=O)CCc1ccc(C)cc1 | 93
71 | Cc1ccc(/C=C/C(=O)N(Cc2cccs2)c2ccn[nH]2)cc1 | 0.004
72 | CCN(Cc1cccs1)C(=O)C[C@H](O)c1ccccc1 | 52000
73 | CCN(Cc1cccs1)C(=O)COc1ccc(Cl)cc1 | 39
74 | COCCN(Cc1cccs1)C(=O)COc1ccc(C)cc1 | 400
75 | Cc1ccc(OCC(=O)N(Cc2cccs2)c2ccncc2)cc1 | 52
76 | CCN(Cc1ccoc1)C(=O)COc1ccc(C)cc1 | 136
77 | CCN(Cc1nccs1)C(=O)COc1ccc(C)cc1 | 3060

Further lines, results first:

Row | EC50 [nM] | Structure (SMILES)
78 | 3.7 | COc1ccc(OCC(=O)N(Cc2cccs2)c2cc[nH]n2)cc1
79 | 31100 | CCN(Cc1c[nH]nn1)C(=O)COc1ccc(C)cc1
80 | 855 | Cc1ccc(OCC(=O)N(Cc2cccs2)c2ccn(C)n2)cc1
81 | 21300 | CCN(Cc1cccn1C)C(=O)COc1ccc(C)cc1
82 | 192 | CCN(Cc1cccs1)C(=O)COc1ccccc1C
83 | 15400 | CCN(Cc1cccnc1)C(=O)COc1ccc(C)cc1
84 | 1240 | Cc1ccc(OCC(=O)N(Cc2cccs2)c2cnccn2)cc1
85 | 120 | CCN(Cc1cccs1)C(=O)c1cc2cc(C)ccc2o1
86 | 21900 | CCN(Cc1cccs1)C(=O)COc1ccc(CO)cc1
87 | 8 | Cc1ccc(OCC(=O)N(Cc2cccs2)C2CC2)cc1
88 | 70 | Cc1ccc(OCC(=O)N(Cc2cccs2)C(C)C)cc1
89 | 3000 | Cc1ccc(OCC(=O)N(CCCO)Cc2cccs2)cc1
90 | 1.1 | COc1ccc2oc(C(=O)N(Cc3cccs3)c3ccn[nH]3)cc2c1
91 | 2240 | Cc1ccc(OCC(=O)N(Cc2cccs2)c2nccs2)cc1
92 | 40000 | Cc1ccc(OCC(=O)N(Cc2cccs2)C2CCCCC2)cc1
93 | 236 | CCN(Cc1cccs1)C(=O)COc1ccc(C(F)(F)F)cc1
94 | 1880 | CCN(Cc1ccccc1)C(=O)COc1ccc(C)cc1
95 | 1790 | Cc1ccc(OCC(=O)N(Cc2cccs2)c2nccn2C)cc1
